According to patent US20250002450A1, “CATIONIC STEROID COMPOUNDS, METHOD OF OBTAINING THEREOF, FORMULATIONS COMPRISING THEREOF AND THEIR USES” (UNIVERSIDADE DO PORTO, priority 2021, published 2025):
≈ marks a conversion by molar mass, not a printed value. Where two headings read alike, the source gives them in different places.

Tests used:
[1] = system: Streptococcuss pyogenes ATCC 19615; test: Antibacterial MIC/MBC (broth microdilution); assay type: cell-based, Streptococcus pyogenes; conditions: for antibacterial activity (in words): S. pyogenes ATCC 19615; for MBC / MIC: Streptococcuss pyogenes ATCC 19615
Outline: (§1)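 Two-fold serial dilutions in Mueller-Hinton broth 2 (0.062-64 μg/mL), inoculum about 5×10^5 CFU/mL, 20 h at 37 degrees C. MIC was the lowest concentration preventing visible growth; MBC was the lowest concentration killing 99.9% of the inoculum after plating wells without growth on MH agar.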

S. aureus 66/1 (MRSA) = test: Antibacterial MIC/MBC (broth microdilution); assay type: cell-based, Staphylococcus aureus
Outline: as §1

[2] = system: Listonella anguilarum ATCC 1924; test: Antibacterial MIC/MBC (broth microdilution); assay type: cell-based; conditions: for antibacterial activity (in words): Listonella anguilarum; for MBC / MIC: Listonella anguilarum ATCC 1924
Outline: as §1

[3] = system: Campylobacter jejuni ATCC 33560; test: Antibacterial MIC/MBC (broth microdilution); assay type: cell-based; conditions: for antibacterial activity (in words): C. jejuni ATCC 33560; for MBC / MIC: Campylobacter jejuni ATCC 33560
[4] = system: Klebsiella pneumoniae ATCC 13883; test: Antibacterial MIC/MBC (broth microdilution); assay type: cell-based; conditions: for MBC / MIC: Klebsiella pneumoniae ATCC 13883
Outline: as §1

[5] = system: Acinetobacter baumannii ATCC 19606; test: Antibacterial MIC/MBC (broth microdilution); assay type: cell-based; conditions: for antibacterial activity (in words): A. baumannii ATCC 19606; for MBC / MIC: Acinetobacter baumannii ATCC 19606
Outline: as §1

[6] = system: Yersinia ruckeri ATCC 29473; test: Antibacterial MIC/MBC (broth microdilution); assay type: cell-based
Outline: as §1

[7] = system: Staphylococcus aureus ATCC 29213; test: Antibacterial MIC/MBC (broth microdilution); assay type: cell-based
Outline: as §1

[8] = system: Salmonella enterica serovar Typhimurium CECT 443; test: Antibacterial MIC/MBC (broth microdilution); assay type: cell-based
Outline: as §1

[9] = system: Escherichia coli ATCC 25922; test: Antibacterial MIC/MBC (broth microdilution); assay type: cell-based; conditions: for MBC / MIC: Escherichia coli ATCC 25922
Outline: as §1

[10] = system: Pseudomonas aeruginosa ATCC 27853; test: Antibacterial MIC/MBC (broth microdilution); assay type: cell-based; conditions: for MBC / MIC: Pseudomonas aeruginosa ATCC 27853
Outline: as §1

[11] = system: Tenacibaculum maritimum ATCC 43397; test: Antibacterial disk diffusion; assay type: cell-based; conditions: for Inhibition zone diameter (disk diffusion): Tenacibaculum maritimum ATCC 43397, footnote *
P. aeruginosa 33b (PDR) = test: Antibacterial MIC/MBC (broth microdilution); assay type: cell-based, Pseudomonas aeruginosa; conditions: for MBC / MIC: P. aeruginosa 33b (PDR)
Outline: as §1

E. faecalis B3/101 (VRE) = test: Antibacterial MIC/MBC (broth microdilution); assay type: cell-based, Enterococcus faecalis; conditions: for antibacterial activity (in words): E. faecalis B3/101; for MBC / MIC: E. faecalis B3/101 (VRE)
Outline: as §1

[12] = system: Enterococcuss faecalis ATCC 29212; test: Antibacterial MIC/MBC (broth microdilution); assay type: cell-based, Enterococcus faecalis; conditions: for antibacterial activity (in words): E. faecalis ATCC 29212; for MBC / MIC: Enterococcuss faecalis ATCC 29212
Outline: as §1

[13] = Streptococcus pyogenes, ATCC19615, read-out: MBC
[14] = Streptococcus pyogenes, ATCC19615, read-out: MIC
[15] = Staphylococcus aureus, read-out: MBC
[16] = Staphylococcus aureus, read-out: MIC
[17] = Pseudomonas aeruginosa, read-out: MBC
[18] = Pseudomonas aeruginosa, read-out: MIC
[19] = Enterococcus faecalis, read-out: MBC
[20] = Enterococcus faecalis, read-out: MIC
[21] = Enterococcus faecalis, ATCC29212, read-out: MBC
[22] = Enterococcus faecalis, ATCC29212, read-out: MIC

C[C@H](CCC(=O)NCCN)[C@H]1CC[C@H]2[C@@H]3CC[C@@H]4C[C@H](O)CC[C@]4(C)[C@H]3C[C@H](O)[C@]12C [Compound 1, (R)—N-(2-aminoethyl)-4-((3R,5R,8R,9S,10S,12S,13R,14S,17R)-3,12-dihydroxy-10,13-dimethylhexadecahydro-1H-cyclopenta[a]phenanthren-17-yl) pentanamida]
antibacterial activity (in words) [1]: active | MBC [1]: 64 µg/mL (≈ 147 µM) | MIC [1]: 64 µg/mL (≈ 147 µM) | MBC (S. aureus 66/1 (MRSA)): 32 µg/mL (≈ 73.6 µM) | MIC (S. aureus 66/1 (MRSA)): 32 µg/mL (≈ 73.6 µM) | antibacterial activity (in words) [2]: active | MBC [2]: 32 µg/mL (≈ 73.6 µM) | MIC [2]: 16 µg/mL (≈ 36.8 µM) | antibacterial activity (in words) [3]: showed antimicrobial activity | MBC [3]: 64 µg/mL (≈ 147 µM) | MIC [3]: 64 µg/mL (≈ 147 µM) | antibacterial activity (in words) ([4]; K. pneumoniae ATCC 13883): active | MBC [4]: 64 µg/mL (≈ 147 µM) | MIC [4]: 64 µg/mL (≈ 147 µM) | antibacterial activity (in words) [5]: displayed an inhibitory effect | MBC [5]: 64 µg/mL (≈ 147 µM) | MIC [5]: 64 µg/mL (≈ 147 µM) | MBC [6]: 32 µg/mL (≈ 73.6 µM) | MIC [6]: 16 µg/mL (≈ 36.8 µM) | antibacterial activity (in words) [6]: displayed antibacterial activity | MBC [7]: 16 µg/mL (≈ 36.8 µM) | MIC [7]: 16 µg/mL (≈ 36.8 µM) | MBC [8]: 16 µg/mL (≈ 36.8 µM) | MIC [8]: 16 µg/mL (≈ 36.8 µM) | antibacterial activity (in words) [8]: exhibited antimicrobial activity | antibacterial activity (in words) ([9]; E. coli ATCC 25922): active | MBC [9]: 64 µg/mL (≈ 147 µM) | MIC [9]: 32 µg/mL (≈ 73.6 µM) | antibacterial activity (in words) ([10]; P. aeruginosa ATCC 27853): active | MBC [10]: 64 µg/mL (≈ 147 µM) | MIC [10]: 64 µg/mL (≈ 147 µM) | Disk diffusion ([11]; Tenacibaculum maritimum ATCC 43397): 20 mm | antibacterial activity (in words) (P. aeruginosa 33b (PDR); P. aeruginosa 33b): active | MBC (P. aeruginosa 33b (PDR)): >64 µg/mL | MIC (P. aeruginosa 33b (PDR)): 64 µg/mL (≈ 147 µM) | antibacterial activity (in words) (E. faecalis B3/101 (VRE)): displayed the same effect | MBC (E. faecalis B3/101 (VRE)): 32 µg/mL (≈ 73.6 µM) | MIC (E. faecalis B3/101 (VRE)): 32 µg/mL (≈ 73.6 µM) | antibacterial activity (in words) [12]: exhibited antimicrobial activity | MBC [12]: 32 µg/mL (≈ 73.6 µM) | MIC [12]: 16 µg/mL (≈ 36.8 µM)

C[C@H](CCC(=O)N1CCCCC1)[C@H]1CC[C@H]2[C@@H]3CC[C@@H]4C[C@H](O)CC[C@]4(C)[C@H]3C[C@H](O)[C@]12C [Compound 2, (R)-4-((3R,5R,8R,9S,10S,12S,13R,14S,17R)-3,12-dihydroxy-10,13-dimethylhexadecahydro-1H-cyclopenta[a]phenanthren-17-yl)-1-(piperidin-1-yl) pentan-1-one]
antibacterial activity (in words) [1]: active | MBC [1, 13]: 32 µg/mL (≈ 69.6 µM) | MIC [1, 14]: 32 µg/mL (≈ 69.6 µM) | MBC (S. aureus 66/1 (MRSA); [15]): > 64 µg/mL | MIC (S. aureus 66/1 (MRSA); [16]): 32 µg/mL (≈ 69.6 µM) | MBC ([2]; read-out: MBC): > 64 µg/mL | MIC ([2]; read-out: MIC): > 64 µg/mL | MBC ([3]; ATCC33560, read-out: MBC): 64 µg/mL (≈ 139 µM) | MIC ([3]; ATCC33560, read-out: MIC): 64 µg/mL (≈ 139 µM) | antibacterial activity (in words) [3]: showed antimicrobial activity | MBC ([4]; ATCC13883, read-out: MBC): > 64 µg/mL | MIC ([4]; ATCC13883, read-out: MIC): > 64 µg/mL | MBC ([5]; ATCC19606, read-out: MBC): > 64 µg/mL | MIC ([5]; ATCC19606, read-out: MIC): > 64 µg/mL | MBC ([6]; ATCC29473, read-out: MBC): > 64 µg/mL | MIC ([6]; ATCC29473, read-out: MIC): > 64 µg/mL | MBC ([7]; ATCC29213, read-out: MBC): > 64 µg/mL | MIC ([7]; ATCC29213, read-out: MIC): 32 µg/mL (≈ 69.6 µM) | MBC ([8]; read-out: MBC): > 64 µg/mL | MIC ([8]; read-out: MIC): > 64 µg/mL | MBC ([9]; ATCC25922, read-out: MBC): > 64 µg/mL | MIC ([9]; ATCC25922, read-out: MIC): > 64 µg/mL | MBC ([10]; ATCC27853, read-out: MBC): > 64 µg/mL | MIC ([10]; ATCC27853, read-out: MIC): > 64 µg/mL | Inhibition zone diameter (disk diffusion) [11]: 18 mm | MBC (P. aeruginosa 33b (PDR); [17]): > 64 µg/mL | MIC (P. aeruginosa 33b (PDR); [18]): > 64 µg/mL | MBC (E. faecalis B3/101 (VRE); [19]): > 64 µg/mL | MIC (E. faecalis B3/101 (VRE); [20]): > 64 µg/mL | antibacterial activity (in words) [12]: exhibited antimicrobial activity | MBC [12, 21]: > 64 µg/mL | MIC [12, 22]: 32 µg/mL (≈ 69.6 µM)

C[C@H](CCC(=O)N1CCN(C(=O)CC[C@H](C)[C@@H]2CC[C@@H]3[C@H]4CC[C@H]5C[C@@H](O)CC[C@@]5(C)[C@@H]4C[C@@H](O)[C@]32C)CC1)[C@H]1CC[C@H]2[C@@H]3CC[C@@H]4C[C@H](O)CC[C@]4(C)[C@H]3C[C@H](O)[C@]12C [Compound 4, (R)-4-((3R,5R,8R,9S,10S,12S,13R,14S,17R)-3,12-dihydroxy-10,13-dimethylhexadecahydro-1H-cyclopenta[a]phenanthren-17-yl)-1-(4-((S)-4-((3S,5S,8S,9R,10R,12R,13S,14R,17S)-3,12-dihydroxy-10,13-dimethylhexadecahydro-1H-cyclopenta[a]phenanthren-17-yl)pentanoyl)piperazin-1-yl) pentan-1-one]
MBC [1, 13]: > 64 µg/mL | MIC [1, 14]: > 64 µg/mL | MBC (S. aureus 66/1 (MRSA); [15]): > 64 µg/mL | MIC (S. aureus 66/1 (MRSA); [16]): 64 µg/mL (≈ 76.6 µM) | antibacterial activity (in words) [2]: active | MBC ([2]; read-out: MBC): 32 µg/mL (≈ 38.3 µM) | MIC ([2]; read-out: MIC): 32 µg/mL (≈ 38.3 µM) | MBC ([3]; ATCC33560, read-out: MBC): > 64 µg/mL | MIC ([3]; ATCC33560, read-out: MIC): > 64 µg/mL | MBC ([4]; ATCC13883, read-out: MBC): > 64 µg/mL | MIC ([4]; ATCC13883, read-out: MIC): > 64 µg/mL | antibacterial activity (in words) [5]: displayed an inhibitory effect | MBC ([5]; ATCC19606, read-out: MBC): 64 µg/mL (≈ 76.6 µM) | MIC ([5]; ATCC19606, read-out: MIC): 64 µg/mL (≈ 76.6 µM) | antibacterial activity (in words) [6]: displayed antibacterial activity | MBC ([6]; ATCC29473, read-out: MBC): 64 µg/mL (≈ 76.6 µM) | MIC ([6]; ATCC29473, read-out: MIC): 64 µg/mL (≈ 76.6 µM) | MBC ([7]; ATCC29213, read-out: MBC): > 64 µg/mL | MIC ([7]; ATCC29213, read-out: MIC): 64 µg/mL (≈ 76.6 µM) | antibacterial activity (in words) [8]: exhibited antimicrobial activity | MBC ([8]; read-out: MBC): 64 µg/mL (≈ 76.6 µM) | MIC ([8]; read-out: MIC): 64 µg/mL (≈ 76.6 µM) | MBC ([9]; ATCC25922, read-out: MBC): > 64 µg/mL | MIC ([9]; ATCC25922, read-out: MIC): > 64 µg/mL | MBC ([10]; ATCC27853, read-out: MBC): > 64 µg/mL | MIC ([10]; ATCC27853, read-out: MIC): > 64 µg/mL | Inhibition zone diameter (disk diffusion) [11]: 10 mm | MBC (P. aeruginosa 33b (PDR); [17]): > 64 µg/mL | MIC (P. aeruginosa 33b (PDR); [18]): > 64 µg/mL | antibacterial activity (in words) (E. faecalis B3/101 (VRE)): displayed the same effect | MBC (E. faecalis B3/101 (VRE); [19]): > 64 µg/mL | MIC (E. faecalis B3/101 (VRE); [20]): 64 µg/mL (≈ 76.6 µM) | antibacterial activity (in words) [12]: exhibited antimicrobial activity | MBC [12, 21]: 64 µg/mL (≈ 76.6 µM) | MIC [12, 22]: 64 µg/mL (≈ 76.6 µM)
